Where two headings read alike, the source gives them in different places. Marks after values point to notes of the source that are not given here.

One data set concerns corneal kindling mice. The following applies: cited from earlier work.
The target of the next data set is T1, hNav1.2 (Homo sapiens, UniProt Q99250).
T1 construct: expressed in transfected cells; host or cells: CHO
Description: Veratridine-induced hNav1.2 activation in CHO cells, membrane potential assay. The following applies: veratridine 50 μM. In kind it is cell-based. As for the experimental part: Data represent the mean ± SEM of three independent experiments. Effects of E2730 and desipramine (Sigma-Aldrich, MO) on hNav1.2 activity were evaluated in CHO cells stably expressing hNav1.2 using a fluorescent-based membrane potential assay (Molecular Devices, CA). Activation of hNav1.2 was induced by veratridine (50 μM) and the change of fluorescence (excitation wavelength, 480 nm; emission wavelength, 540 nm) was recorded using Fluorescence Drug Screening System 6000 (Hamamatsu Photonics, Japan).

Data set [1] concerns the target T2, hGABAAR (containing α1, β3, and γ2 subunits) (Homo sapiens, UniProt P14867+P18507+P28472).
T2 construct: expressed in transfected cells; host or cells: HEK-293
Description: GABA-induced current in hGABAAR-expressing HEK-293 cells, whole-cell patch-clamp. Type of data set: cell-based. On the procedure:
Data represent the mean ± SEM of 3 independent experiments. Control response is GABA (13 μM)-induced current amplitude. […] Cells in voltage clamp were maintained at -80 mV throughout the experiments following the voltage protocol.
On the technique in general: In patch-clamp work, channel activity is measured electrically.

Data set [2] deals with 6 Hz-44 mA psychomotor seizure mice. Description: Pharmaco-resistant 6 Hz-44 mA psychomotor seizures in mice. Type of data set: in vivo, mouse. On the procedure:
Psychomotor seizures were stimulated by applying currents (44 mA, 6 Hz, 0.2 millisecond rectangular pulse width, 3‐second duration each) via a corneal electrode (SEN‐7203; Nihon Kohden). E2730 (5–50 mg/kg), levetiracetam (Tokyo Chemical Industry; 20–200 mg/kg), or vehicle was orally administered to ddY mice (male, 5 weeks old; Japan SLC Inc.) 1 hour before electrostimulation. […] Behavioral seizures observed in mice were classified into the following four types: stun, forelimb clonus, twitching of the vibrissae, and Straub‐tail.

The test system of another data set is amygdala kindling rats. Description: Amygdala kindling in rats. In kind it is in vivo, rat. From the text:
A tripolar electrode was implanted into the basolateral amygdala of Wistar‐Kyoto rats (male, 7 weeks old; Charles River Laboratories Japan, Japan). After at least 5 days of recovery, the amygdala was stimulated using an electronic stimulator at currents starting at 0.04 mA (50 Hz, 1 millisecond monophasic square‐wave pulses, 1‐second duration each) then increasing by 25% to a 30‐second duration until the after‐discharge threshold (ADT) was attained. ADT was defined as the current at which abnormal electroencephalogram and at least Racine's stage‐1 seizure behavior were observed. In the Racine's stage, seizure severity was classified as: 1, mouth and facial movements; 2, head nodding; 3, forelimb clonus; 4, rearing; 5, rearing and falling. From the next day onwards, electrical stimulation at the previously determined ADT was performed once daily in each rat. The rats showing ≥3 consecutive Racine stage‐5 seizures were deemed epileptic and used for drug evaluation. The pre‐ADT (i.e. baseline) seizure threshold of each rat was established prior to drug administration. After >1 hour following the determination of pre‐ADT seizure threshold, E2730 (5–50 mg/kg), levetiracetam (25 mg/kg), or vehicle was orally administered to the rats. One hour after the administration, the post‐ADT seizure threshold of each rat was ascertained, and the ratios of post‐ADT to pre‐ADT readings were analyzed.

A further data set deals with ddY mice. Conditions: ref Levy et al.[39]; cited from earlier work.
Data set [3] relates to extracellular GABA concentration in mouse hippocampus. Description: Microdialysis: extracellular GABA concentration in mouse hippocampus. The following applies: mouse hippocampus, oral; E2730 10-100 mg/kg, tiagabine 3-30 mg/kg. In kind it is in vivo. On the procedure:
A guide cannula was implanted in the left hippocampus (2.7 mm posterior, 3.3 mm left, and 1.8 mm below from the bregma) of ddY mice (male, 5 weeks old). After 5–7 days of recovery, a microdialysis probe (Eicom) was inserted into the left hippocampus through the guide cannula. The tip of the microdialysis probe reached 4.8 mm below the bregma. The next day, the probe was connected to a perfusion tube and perfused with Ringer solution (containing 147.0 mM NaCl, 4.7 mM KCl, 0.6 mM MgSO4, 2.5 mM CaCl2, 5.0 mM HEPES, pH 7.4) at a flow rate of 1.5 μL/min. After ≥160 minutes of perfusion, collection of the perfusate (30 μL/20 min/fraction) was initiated, and 12 fractions per animal were collected for 240 minutes. E2730 (10–100 mg/kg), tiagabine (3–30 mg/kg), or vehicle was orally administered 72 minutes after initiating sample collection. Tiagabine was used as a reference ASM of a non‐competitive GAT1 inhibitor. Perfusate was switched from Ringer solution to high‐potassium Ringer solution (51.7 mM NaCl, 100.0 mM KCl, 0.6 mM MgSO4, 2.5 mM CaCl2, 5.0 mM HEPES, pH 7.4) after 127 minutes following the collection. GABA concentration in each sample was measured by a high‐performance liquid chromatography with tandem mass spectrometry method.

T2 sequence (P14867 28-456): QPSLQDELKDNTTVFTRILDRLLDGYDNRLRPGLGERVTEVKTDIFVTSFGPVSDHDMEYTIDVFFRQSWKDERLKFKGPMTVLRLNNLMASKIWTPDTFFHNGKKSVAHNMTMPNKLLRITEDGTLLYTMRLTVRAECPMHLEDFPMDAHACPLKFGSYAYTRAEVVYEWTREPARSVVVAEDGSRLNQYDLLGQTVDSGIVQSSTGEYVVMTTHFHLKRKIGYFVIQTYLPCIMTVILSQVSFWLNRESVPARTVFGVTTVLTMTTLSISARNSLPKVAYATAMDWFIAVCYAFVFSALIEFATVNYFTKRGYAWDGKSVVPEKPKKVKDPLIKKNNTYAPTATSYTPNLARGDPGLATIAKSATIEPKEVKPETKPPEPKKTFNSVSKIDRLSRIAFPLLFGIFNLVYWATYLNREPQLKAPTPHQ
T2 sequence (P28472 26-473): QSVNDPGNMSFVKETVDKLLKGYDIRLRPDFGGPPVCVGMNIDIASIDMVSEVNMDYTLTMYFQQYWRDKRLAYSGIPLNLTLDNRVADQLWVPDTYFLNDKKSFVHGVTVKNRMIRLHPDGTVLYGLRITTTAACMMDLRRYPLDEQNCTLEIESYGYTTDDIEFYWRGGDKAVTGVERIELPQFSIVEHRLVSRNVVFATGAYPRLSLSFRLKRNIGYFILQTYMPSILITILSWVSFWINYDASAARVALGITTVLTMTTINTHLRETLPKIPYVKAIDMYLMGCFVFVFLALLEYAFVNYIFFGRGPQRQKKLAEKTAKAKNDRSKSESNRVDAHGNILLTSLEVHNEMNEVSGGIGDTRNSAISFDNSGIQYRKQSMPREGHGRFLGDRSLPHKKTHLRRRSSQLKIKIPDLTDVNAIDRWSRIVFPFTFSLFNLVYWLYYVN
T2 sequence (P18507 40-475): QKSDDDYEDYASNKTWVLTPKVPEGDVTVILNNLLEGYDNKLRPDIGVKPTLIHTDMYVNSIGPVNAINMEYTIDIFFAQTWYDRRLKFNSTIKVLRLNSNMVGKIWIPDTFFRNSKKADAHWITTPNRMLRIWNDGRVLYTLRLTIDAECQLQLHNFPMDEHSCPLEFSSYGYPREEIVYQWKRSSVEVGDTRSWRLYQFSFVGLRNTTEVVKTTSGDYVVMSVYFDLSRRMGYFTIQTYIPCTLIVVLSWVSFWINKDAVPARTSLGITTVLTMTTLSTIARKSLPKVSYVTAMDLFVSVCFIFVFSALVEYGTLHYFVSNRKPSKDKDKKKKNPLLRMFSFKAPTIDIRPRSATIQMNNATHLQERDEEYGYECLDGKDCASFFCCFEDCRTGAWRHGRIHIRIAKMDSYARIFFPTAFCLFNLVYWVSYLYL
T1 sequence (Q99250 whole entry): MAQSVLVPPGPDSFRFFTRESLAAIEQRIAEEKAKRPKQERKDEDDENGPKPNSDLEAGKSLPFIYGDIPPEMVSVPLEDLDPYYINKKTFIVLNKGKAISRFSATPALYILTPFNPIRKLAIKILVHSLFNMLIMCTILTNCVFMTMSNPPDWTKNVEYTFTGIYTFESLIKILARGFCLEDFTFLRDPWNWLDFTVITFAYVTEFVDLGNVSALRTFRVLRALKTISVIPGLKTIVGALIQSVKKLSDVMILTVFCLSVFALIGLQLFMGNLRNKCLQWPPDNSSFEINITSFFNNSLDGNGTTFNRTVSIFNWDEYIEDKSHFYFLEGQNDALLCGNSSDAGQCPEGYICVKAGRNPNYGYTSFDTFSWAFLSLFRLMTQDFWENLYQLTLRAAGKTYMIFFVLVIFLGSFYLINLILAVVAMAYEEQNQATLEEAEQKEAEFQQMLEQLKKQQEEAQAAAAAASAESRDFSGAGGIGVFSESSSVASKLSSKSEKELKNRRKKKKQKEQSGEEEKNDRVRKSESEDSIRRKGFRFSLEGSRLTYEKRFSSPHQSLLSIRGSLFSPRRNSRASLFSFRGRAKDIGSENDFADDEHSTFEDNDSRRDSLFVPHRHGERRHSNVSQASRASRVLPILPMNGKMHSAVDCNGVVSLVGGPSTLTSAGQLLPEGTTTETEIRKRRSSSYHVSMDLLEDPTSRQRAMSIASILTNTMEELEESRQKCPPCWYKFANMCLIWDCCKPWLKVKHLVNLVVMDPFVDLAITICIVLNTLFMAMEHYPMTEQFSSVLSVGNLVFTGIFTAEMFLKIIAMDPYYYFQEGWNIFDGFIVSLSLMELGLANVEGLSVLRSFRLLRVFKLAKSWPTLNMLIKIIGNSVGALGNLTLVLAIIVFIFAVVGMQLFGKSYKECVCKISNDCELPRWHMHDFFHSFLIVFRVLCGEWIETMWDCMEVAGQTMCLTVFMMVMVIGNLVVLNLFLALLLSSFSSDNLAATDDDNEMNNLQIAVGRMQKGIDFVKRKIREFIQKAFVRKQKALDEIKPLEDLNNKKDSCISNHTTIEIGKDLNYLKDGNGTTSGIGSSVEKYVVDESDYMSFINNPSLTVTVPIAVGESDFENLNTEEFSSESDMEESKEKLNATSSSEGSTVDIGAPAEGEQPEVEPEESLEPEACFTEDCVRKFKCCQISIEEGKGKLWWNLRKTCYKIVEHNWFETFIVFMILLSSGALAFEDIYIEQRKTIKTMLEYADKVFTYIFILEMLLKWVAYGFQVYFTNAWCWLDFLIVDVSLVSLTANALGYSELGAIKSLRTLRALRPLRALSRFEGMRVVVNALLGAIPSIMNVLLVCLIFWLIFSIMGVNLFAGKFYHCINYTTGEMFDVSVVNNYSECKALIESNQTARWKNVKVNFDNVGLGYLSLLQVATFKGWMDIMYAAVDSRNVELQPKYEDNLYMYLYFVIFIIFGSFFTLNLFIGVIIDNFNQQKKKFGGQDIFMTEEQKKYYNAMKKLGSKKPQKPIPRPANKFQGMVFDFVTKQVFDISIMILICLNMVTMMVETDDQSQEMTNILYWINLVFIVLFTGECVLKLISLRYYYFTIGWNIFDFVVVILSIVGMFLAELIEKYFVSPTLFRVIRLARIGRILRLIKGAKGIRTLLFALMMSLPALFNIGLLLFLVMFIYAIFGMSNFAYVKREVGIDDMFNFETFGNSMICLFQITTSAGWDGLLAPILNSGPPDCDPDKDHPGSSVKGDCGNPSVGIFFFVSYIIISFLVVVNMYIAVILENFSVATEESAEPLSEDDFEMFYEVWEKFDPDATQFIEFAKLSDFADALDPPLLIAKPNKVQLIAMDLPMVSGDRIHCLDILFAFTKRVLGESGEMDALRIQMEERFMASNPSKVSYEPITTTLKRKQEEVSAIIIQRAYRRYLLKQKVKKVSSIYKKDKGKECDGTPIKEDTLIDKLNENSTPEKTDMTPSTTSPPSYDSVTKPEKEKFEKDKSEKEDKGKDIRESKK

Turning to `NC(=O)N1c2ccccc2C=Cc2ccccc21` [Carbamazepine, carbamazepine], the “ED50 (95% CI) in corneal kindling mice” value in the data set on corneal kindling mice (ref Matagne et al.[40]) was 9 ^c (5, 11) mg/kg.
Consider `O=C1CN=C(c2ccccc2Cl)c2cc([N+](=O)[O-])ccc2N1` [Clonazepam, clonazepam], for which, in the data set with corneal kindling mice (ref Matagne et al.[40]), the “ED50 (95% CI) in corneal kindling mice” value was 0.04 ^c (0.02, 0.07) mg/kg.
`CNCCCN1c2ccccc2CCc2ccccc21` [Desipramine, desipramine, reference compound] came in with an IC50 against hNav1.2 of 4.9 µM.
`CN1C(=O)CN=C(c2ccccc2)c2cc(Cl)ccc21` [Diazepam, diazepam]: in data set [1] (HEK293, read-out: Emax, potentiation of GABA-induced current amplitude), the Emax at 1 µM amounted to 218%.
Regarding `CCC1(C)CC(=O)NC1=O` (stereo not shown) [Ethosuximide, ethosuximide], in the data set on corneal kindling mice (ref Matagne et al.[40]), the “ED50 (95% CI) in corneal kindling mice” value is on record as >254 ^c mg/kg.
For the molecule `CC[C@@H](C(N)=O)N1CCCC1=O` [Levetiracetam, levetiracetam], in data set [2] (Mus musculus, oral, 1 hour before electrostimulation, ddY mice, read-out: ED50 (95% CI), 6 Hz-44 mA psychomotor seizures), the ED50 is above 200 mg/kg. Also, the “anti-seizure efficacy in 6 Hz-44 mA psychomotor seizures” value in data set [2] (levetiracetam 20-200 mg/kg oral) is “did not show ≥50% efficacy”. In addition, in the data set on amygdala kindling rats (levetiracetam 25 mg/kg oral), the post-ADT/pre-ADT ratio came to 127%. In the data set on amygdala kindling rats (oral, footnote a: minimum effective dose), the “Minimum effective dose, amygdala kindling (rat)” value came out at 25 mg/kg. Besides, the “ED50 (95% CI) in corneal kindling mice” value with corneal kindling mice (ref Matagne et al.[40]) is recorded as 16 ^c (6, 43) mg/kg. Further, in the data set on ddY mice, the “TD50 (95% CI) in mouse rotarod test” value is >500 ^b mg/kg.
Turning to `CCC1(c2ccccc2)C(=O)NC(=O)NC1=O` [Phenobarbital, phenobarbital], in the data set with corneal kindling mice (ref Matagne et al.[40]), the “ED50 (95% CI) in corneal kindling mice” value is reported as 11 ^c (7, 15) mg/kg.
For `Cc1ccsc1C(=CCCN1CCC[C@@H](C(=O)O)C1)c1sccc1C` [Tiagabine, tiagabine, reference compound], in data set [3], the “effect on basal extracellular GABA concentration” value was “significantly increased” and the “effect on high-potassium-induced extracellular GABA concentration” value is listed as “significantly increased”. In data set [1] (GABA 13 μM, -80 mV, read-out: EC50, potentiation of GABA-induced current amplitude), the EC50 is 4.8 µM. Further, in data set [1] (HEK293, at 100 μM, control response GABA (13 μM)-induced current, read-out: Emax, potentiation of GABA-induced current amplitude), the maximum response (Emax) at 100 µM turned out to be 153%. Moreover, in the data set with corneal kindling mice (ref Madsen et al.[38]), the “ED50 (95% CI) in corneal kindling mice” value is recorded as 0.51 ^a mg/kg. The “TD50 (95% CI) in mouse rotarod test” value with ddY mice is reported as 1.29 ^b mg/kg.
As for `CCCC(CCC)C(=O)O` [Valproate, valproate], the “ED50 (95% CI) in corneal kindling mice” value in the data set on corneal kindling mice (ref Matagne et al.[40]) is 110 ^c (83, 143) mg/kg.

By IC50 is commonly meant the concentration at which inhibition is half-maximal. The term Emax denotes the greatest response seen or fitted, relative to the assay's reference. The ED50 is the dose at which the effect has come halfway, by size or by number of responders. One may read the EC50 as the concentration giving half of the maximal effect.

(Values after paper PMC10472371, “Discovery of E2730, a novel selective uncompetitive GAT1 inhibitor, as a candidate for anti‐seizure medication” (Epilepsia Open, 2023).)
